Data set [1] can be described thus: Competitive slurries of anhydrous Form 1 and hydrate in water/methanol mixtures, stable form determined by DSC. Type of data set: physicochemical. On the set-up: key to stable crystal form: A indicates the anhydrous form is the stable form; H indicates the hydrate is the stable form; U data was inconclusive. The method, then:
DSC was carried out using a Mettler Toledo DSC 820 or DSC1. A sample loading of around 5 mg was used and this was heated from 40° C. to 250° C. at a rate of 10° C./minute on the DSC820 or from 25° C. to 250° C. at a rate of 10° C./minute on the DSC1. The lid of the DSC crucible was pierced to allow the escape of any gas formed during the heating of the sample. The thermodynamic stability of hydrated crystals depends not only on temperature but also on the abundance of water, or more precisely, the water activity (aw), which is equivalent to the relative humidity. In order to determine under which conditions the anhydrous polymorph Form 1 and the hydrate are stable, a series of competitive slurries containing both crystal forms were prepared in different water/methanol mixtures and at a range of temperatures. The resulting crystals were analysed by DSC to determine the stable form under the given conditions. […] From the data above, the water/methanol compositions were converted into water activities and a phase diagram was constructed.

A short description of data set [2]: Stability of suspension concentrate formulation of anhydrous Form 1 contaminated with 5% hydrated form, temperature cycling. It is filed as physicochemical. Conditions: SC of anhydrous Form 1 with 5% hydrated form, cycling 0° C. to 40° C. over 12 hours, after two weeks. The method, then: Two standard suspension concentrate (SC) formulations were separately prepared using the anhydrous Form 1 polymorph and the hydrated polymorph. The SC of the anhydrous Form 1 was contaminated with 5% of the hydrated form and placed in a temperature cycling oven varying from 0° C. to 40° C. over 12 hours. After two weeks, the sample was inspected. […] Some crystals were removed from the formulation and dried.

For `Cn1cc(C(=O)Nc2cccc3c2C2CCC3C2=C(Cl)Cl)c(C(F)F)n1` (racemic) [compound of formula (I), 3-difluoromethyl-1-methyl-1H-pyrazole-4-carboxylic acid (9-dichloromethylene-1,2,3,4-tetrahydro-1,4-methano-naphthalen-5-yl)-amide], the stable crystal form result in data set [1] (1% water in methanol, 5 °C) is reported as “A”; in data set [1] (1% water in methanol, 20 °C), “A”; in data set [1] (1% water in methanol, 35 °C), “A”; in data set [1] (1% water in methanol, 40 °C) it was “A”; in data set [1] (1% water in methanol, 45 °C) it was “A”; in data set [1] (1% water in methanol, 60 °C) it was “A”. Besides, the stable crystal form result in data set [1] (5% water in methanol, 5 °C) is “A”; in data set [1] (5% water in methanol, 20 °C), “A”; in data set [1] (5% water in methanol, 35 °C), “A”; in data set [1] (5% water in methanol, 40 °C) it was “A”; in data set [1] (5% water in methanol, 45 °C) it was “A”; in data set [1] (5% water in methanol, 60 °C), “A”. Also, the stable crystal form result is given as “H” in data set [1] (7.5% water in methanol, 5 °C); “H” in data set [1] (7.5% water in methanol, 15 °C); “H” in data set [1] (10% water in methanol, 5 °C); “H” in data set [1] (10% water in methanol, 15 °C); “U” in data set [1] (10% water in methanol, 20 °C); “U” in data set [1] (10% water in methanol, 30 °C). Moreover, the stable crystal form entry in data set [1] (10% water in methanol, 35 °C) was “A”; in data set [1] (10% water in methanol, 40 °C), “A”; in data set [1] (10% water in methanol, 45 °C), “A”; in data set [1] (10% water in methanol, 60 °C), “A”; in data set [1] (12.5% water in methanol, 5 °C) it was “H”; in data set [1] (15% water in methanol, 5 °C), “H”. The stable crystal form entry is “H” in data set [1] (15% water in methanol, 15 °C); “H” in data set [1] (15% water in methanol, 50 °C); “A” in data set [1] (15% water in methanol, 60 °C); “H” in data set [1] (20% water in methanol, 20 °C); “H” in data set [1] (20% water in methanol, 30 °C); “H” in data set [1] (20% water in methanol, 35 °C). Also, the stable crystal form result in data set [1] (20% water in methanol, 40 °C) is “H”; in data set [1] (20% water in methanol, 45 °C), “H”; in data set [1] (20% water in methanol, 60 °C), “H”; in data set [1] (25% water in methanol, 50 °C), “H”; in data set [1] (25% water in methanol, 60 °C), “H”; in data set [1] (35% water in methanol, 60 °C), “H”.

As for `Cn1cc(C(=O)Nc2cccc3c2C2CCC3C2=C(Cl)Cl)c(C(F)F)n1` (stereo not drawn) [anhydrous polymorph Form 1, 3-difluoromethyl-1-methyl-1H-pyrazole-4-carboxylic acid (9-dichloromethylene-1,2,3,4-tetrahydro-1,4-methano-naphthalen-5-yl)-amide], in data set [2], the “polymorphic conversion (powder X-ray diffraction)” value is “fully converted to the hydrated form” and the “size of the crystals (microscopy)” value was “increased substantially”.

As for `Cn1cc(C(=O)Nc2cccc3c2C2CCC3C2=C(Cl)Cl)c(C(F)F)n1` (stereo not drawn) [hydrate of compound (I), 3-difluoromethyl-1-methyl-1H-pyrazole-4-carboxylic acid (9-dichloromethylene-1,2,3,4-tetrahydro-1,4-methano-naphthalen-5-yl)-amide], in data set [1] (normal ambient relative humidities, from phase diagram (FIG. 3)), the “temperature required to dehydrate the hydrate” value is greater than 60 °C.

The values above are taken from US9617219B2, “Polymorphs of 3-difluoromethyl-1-methyl-1 H-pyrazole-4-carboxylic acid (9-dichloro-methylene-1,2,3,4-tetrahydro-1,4-methano-naphthalen-5-yl)-amide” (Syngenta Participations AG, priority 2014, dated 2017).
